The values that follow come from PMC9924185, “A validated LC–MS/MS method for clinical pharmacokinetics and presumptive phase II metabolic pathways following oral administration of Andrographis paniculata extract” (Scientific Reports, 2023).

The data set in a line: Metabolite profiling in urine by LC-QTOF/MS after oral administration of A. paniculata extract. The format is in vivo. The conditions noted are these: tentative metabolite in human urine (pooled 0–4 and 4–8 h) after single oral A. paniculata extract. On the procedure: For qualitative determination of untargeted compounds, liquid chromatography-quadrupole time-of-flight mass spectrometry (LC-QTOF/MS) was performed on an Agilent 6540 QTOF/MS (Agilent Technologies, USA) equipped with an Agilent 1260 infinity liquid chromatography system. The stationary phase of the chromatographic separation was performed on a 150 mm × 4.6 mm, 5.0 µm Phenomenex Luna C18 column (Phenomenex, USA) using a mobile phase consisting of 0.1% formic acid in water pH 2.5–2.7 (A) and 100% acetonitrile (B) at a constant flow rate of 0.5 mL/min with a controlled oven temperature at 35 °C, (and 10 µL) of injection volume. The elution gradient was started with 30%B, and was increased to 90%B within 20 min, then maintained at 95%B during 25–30 min followed by a post-run for 5 min.
Mass spectrometric analysis was performed using an ESI negative and positive modes with varying collision energies (10, 20, and 40 V) over a mass range of m/z 100–1200 Da. The MS conditions were as follows: capillary voltage = 3500 V; flow rate of drying gas (N2) = 10.0 L/min, 350 °C; nebulizer pressure = 30 psi, fragmentation voltage = 250 V for negative mode and 100 V for positive mode. All acquisition data were analyzed using MassHunter Software B.07.01 and MassHunter Qualitative Analysis Software B.08.00 (Agilent Technologies, USA). To support the metabolite identification, the MS chromatograms were determined by comparing the fragmentation patterns of metabolites and library searches in Mass Hunter, and Human Metabolome Database (HMDB). For sample preparation, pooled urine samples at 0–4 and 4–8 h were prepared using the same extraction process described in the pharmacokinetic study.
On to “14-Deoxy-11,12-didehydroandrographolide glucuronide [M2]”, for which the “Metabolic Pathway” value is recorded as “Glucuronidation”.
Then Andrographolide glucuronide [M1], with “Glucuronidation”.
With Andrographolide sulfate [M4], the “Metabolic Pathway” value is recorded as “Sulfation*”.
Turning to “14-Deoxyandrographolide glucuronide [M3]”, the “Metabolic Pathway” value is “Glucuronidation”.
